The values that follow are results of earlier work, collected in patent publication US20210319872A1, “DRUG AND DEVICE COMBINATION PRODUCTS WITH IMPROVED SAFETY AND EFFICACY PROFILES” (priority 2016, published 2021).

The conditions of this data set: in vivo.

Take `O=C(O)Cc1ccccc1Nc1c(Cl)cccc1Cl` [Zorvolex]: the Constipation entry is “Gastrointestinal: Constipation (5% to 8%), Diarrhea (6%), Nausea”; the Diarrhea result is “Gastrointestinal: Constipation (5% to 8%), Diarrhea (6%), Nausea”; the Headache entry is listed as “Neurologic: Headache (4% to 8%)”; the Nasopharyngitis result is “Respiratory: Nasopharyngitis (6%), Sinusitis (3% to 5%), Upper”. For the same compound, the Nausea result is listed as “(6% to 7%)”; the “Serious side effect, Cardiovascular” value is on record as “Cardiovascular: Myocardial infarction, Thrombosis”; the “Serious side effect, Gastrointestinal” value is “Gastrointestinal: Gastrointestinal hemorrhage, Gastrointestinal”; the “Serious side effect, Immunologic” value is given as “Immunologic: Anaphylactoid reaction”. Also, the “Serious side effect, Neurologic” value is on record as “Neurologic: Cerebrovascular accident”; the “Serious side effect, Renal” value is “Renal: Acute renal failure”; the “Serious side effect, Respiratory” value is on record as “Respiratory: Bronchospasm”; the Sinusitis result is recorded as “Respiratory: Nasopharyngitis (6%), Sinusitis (3% to 5%), Upper”. Besides, the Upper respiratory infection entry is recorded as “respiratory infection (8%)” and the “Urinary tract infectious disease” value is “Renal: Urinary tract infectious disease (7%)”.

For the compound `COc1ccc(C(CN(C)C)C2(O)CCCCC2)cc1` (centres unmarked) [Venlafaxine (Effexor)], the Abnormal ejaculation result was “Reproductive: Abnormal ejaculation (2.2% to 19%), Erectile”; the Asthenia entry is on record as “Neurologic: Asthenia (8% to 19%), Dizziness (11% to 23.9%),”; the Dizziness entry is on record as “Neurologic: Asthenia (8% to 19%), Dizziness (11% to 23.9%),”; the Dream disorder result was “Dream disorder (3% to 7%), Headache (25% to 38%), Insomnia”. The Erectile dysfunction result is given as “dysfunction (2.1% to 6%), Orgasm disorder (2% to 5%)”; the Feeling nervous result was “Psychiatric: Feeling nervous (4% to 21.3%)”; the Headache entry was “Dream disorder (3% to 7%), Headache (25% to 38%), Insomnia”; the Hypertension result is recorded as “Cardiovascular: Hypertension (3% to 13%)”. In addition, the Nausea is on record as 22%), Nausea (21% to 58%), Xerostomia (12% to 22%); the Orgasm disorder result is on record as “dysfunction (2.1% to 6%), Orgasm disorder (2% to 5%)”; the Seizure result was “Neurologic: Seizure (0.3%)”; the Sweating symptom entry is given as “Dermatologic: Sweating symptom (6.7% to 25%)”. Further, the Weight loss result is “Endocrine metabolic: Weight loss (3% to 47%)” and the Xerostomia is recorded as 22%), Nausea (21% to 58%), Xerostomia (12% to 22%).

In the case of `CS(=O)(=O)O.Fc1ccc([C@@H]2CCNC[C@H]2COc2ccc3c(c2)OCO3)cc1` [Brisdelle], the Asthenia entry is on record as “Neurologic: Asthenia (2.9% to 22%), Dizziness (6% to 14%),”; the Constipation entry is listed as “Gastrointestinal: Constipation (4.9% to 16%), Diarrhea (7.9% to”; the Diaphoresis result was “Dermatologic: Diaphoresis (1% to 14%)”; the Dizziness entry is “Neurologic: Asthenia (2.9% to 22%), Dizziness (6% to 14%),”. The Insomnia entry is “vasomotor symptoms, 6.3%), Insomnia (11% to 24%), Somnolence”; the Nausea is listed as ≤ 19.2%), Loss of appetite (2% to 9%), Nausea (up to 36.3%),; the Reduced libido was 9%), Reduced libido (males, 6% to 15%; females, 0% to 9%); the “Serious side effect, Other” value is reported as “Other: Serotonin syndrome”. Also, the “Serious side effect, Psychiatric” value was “Psychiatric: Depression, Exacerbation, Suicidal thoughts, Suicide”; the Somnolence result is “(12.7% to 24%), Tremor (up to 14.7%)”; the Tremor result is listed as “(12.7% to 24%), Tremor (up to 14.7%)”; the Xerostomia result is “Xerostomia (10.8% to 20.6%)”.

Turning to `CC(C)NCC(O)COc1ccc(CCOCC2CC2)cc1` (centres unmarked) [Betaxolol (Kerlone)], the Arthralgia entry is “Musculoskeletal: Arthralgia (3.1% to 5.2%), Chest pain (2.4% to”; the Bradyarrhythmia entry is given as “Cardiovascular: Bradyarrhythmia (5.8% to 8.1%)”; the “Burning sensation in eye” value is listed as “Ophthalmic: Burning sensation in eye (30%, ophthalmic)”; the Fatigue entry is “Other: Fatigue (2.9% to 9.7%)”. Further, the Indigestion entry is reported as “Gastrointestinal: Indigestion (3.9% to 4.7%), Nausea (1.6% to” and the “Serious side effects, listed without incidence or only as rare” value is listed as “Cardiovascular: Atrioventricular block, Myocardial infarction”.

Take `COCCc1ccc(OCC(O)CNC(C)C)cc1` (centres unmarked) [Metoprolol (Lopressor, Toprol XL)]: the Bradyarrhythmia entry was “Cardiovascular: Bradyarrhythmia (3%), Cold extremities (1%),”; the Bronchospasm result is reported as “Respiratory: Bronchospasm (1%)”; the Cold extremities result is recorded as “Cardiovascular: Bradyarrhythmia (3%), Cold extremities (1%),”; the “Common side effects, listed without incidence” value is given as “Neurologic: Dizziness (10%), Fatigue (10%), Headache”. Further, the Constipation entry is reported as “Gastrointestinal: Constipation (1%), Diarrhea (5%), Indigestion”; the Depression entry is listed as “Psychiatric: Depression (5%)”; the Diarrhea entry is given as “Gastrointestinal: Constipation (1%), Diarrhea (5%), Indigestion”; the Dizziness result is “Neurologic: Dizziness (10%), Fatigue (10%), Headache”. The Dyspnea result is “Respiratory: Dyspnea (3%), Wheezing (1%)”; the Fatigue result is given as “Neurologic: Dizziness (10%), Fatigue (10%), Headache”; the Heart failure entry is given as “Heart failure (1%), Hypotension (1%)”; the Hypotension result was “Heart failure (1%), Hypotension (1%)”. The Indigestion result is recorded as “(1%), Nausea (1%)”; the Nausea entry is on record as “(1%), Nausea (1%)”; the Pruritus result was “Dermatologic: Pruritus (5%), Rash (5%)”; the Rash result is reported as “Dermatologic: Pruritus (5%), Rash (5%)”. Further, the Wheezing entry is listed as “Respiratory: Dyspnea (3%), Wheezing (1%)”.

Turning to `Fc1ccc([C@@H]2CCNC[C@H]2COc2ccc3c(c2)OCO3)cc1` [Paroxetine (Paxil)], the Abnormal ejaculation entry is given as “Reproductive: Abnormal ejaculation (13% to 28%), Erectile”; the Asthenia entry was “Neurologic: Asthenia (up to 22%), Dizziness (6% to 14%),”; the Constipation result is listed as “Gastrointestinal: Constipation (up to 16%), Diarrhea (up to 18%),”; the Diaphoresis entry is given as “Dermatologic: Diaphoresis (5% to 14%)”. Besides, the Diarrhea result was “Gastrointestinal: Constipation (up to 16%), Diarrhea (up to 18%),”; the Dizziness result is reported as “Neurologic: Asthenia (up to 22%), Dizziness (6% to 14%),”; the Erectile dysfunction entry is reported as “dysfunction (2% to 9%), Orgasm disorder (females; 2% to 9%),”; the Headache result was “Headache (17% to 27%), Insomnia (up to 24%), Somnolence (up to”. The Nausea entry is given as “Loss of appetite (up to 9%), Nausea (up to 26%), Xerostomia (9%”; the Orgasm disorder result is listed as “dysfunction (2% to 9%), Orgasm disorder (females; 2% to 9%),”; the Palpitations result is on record as “Cardiovascular: Palpitations (up to 3%), Vasodilatation (2% to 4%)”; the Reduced libido entry is given as “Reduced libido (males: 6% to 15%; females: 0% to 9%)”. For the same compound, the Seizure result is “Neurologic: Seizure (0.1%)”; the Somnolence is on record as ≤ 24%), Tremor (4% to 11%); the Tremor is on record as 24%), Tremor (4% to 11%); the Vasodilatation result is “Cardiovascular: Palpitations (up to 3%), Vasodilatation (2% to 4%)”. The Xerostomia result is recorded as “Loss of appetite (up to 9%), Nausea (up to 26%), Xerostomia (9%” and the Yawning entry is on record as “Respiratory: Yawning (4%)”.

For `COc1ccc(-n2nc(C(N)=O)c3c2C(=O)N(c2ccc(N4CCCCC4=O)cc2)CC3)cc1` [Apixaban (Eliquis)], the Bleeding gums entry was “Gastrointestinal: Bleeding gums (Less than 0.1% to 1.4%)”; the “Bleeding, Major” value is given as “prophylaxis, 2.88% to 4.83%), Bleeding, Major (0.1% to 2.13%),”; the Conjunctival hemorrhage entry is listed as “Ophthalmic: Conjunctival hemorrhage (0.1% to less than 1%),”; the Contusion entry was “Dermatologic: Contusion (1.4% to 2.2%)”. The Hematochezia result is reported as “pulmonary embolism, 0.1% to less than 1%), Hematochezia (0.1%”; the Hematoma entry was “Hematologic: Hematoma (DVT, 1.3% to 1.5%)”; the Hemorrhage result was “Hemorrhage (0.1% to 1.4%), Hemorrhage, Operative (DVT”; the Hemorrhage of muscle result is given as “Musculoskeletal: Hemorrhage of muscle (Less than 0.1% to less”. The “Hemorrhage, Operative” value is on record as “prophylaxis, 0.1% to less than 1%)”; the Hypersensitivity reaction was less than 1%); the Intracranial hemorrhage entry is given as “fibrillation, 0.33% to 0.34%/year), Non-traumatic spinal subdural”; the Intraocular hemorrhage entry is “Intraocular hemorrhage (Less than 0.1% to less than 1%), Retinal”. The “Liver function tests abnormal” value is listed as 0.1% to less than 1%), Serum bilirubin raised (DVT prophylaxis,; the Menorrhagia result is recorded as “Reproductive: Menorrhagia (1.4%)”; the Retinal hemorrhage entry is “hemorrhage (0.1% to less than 1%)”; the Serum bilirubin raised is 0.1% to less than 1%).

In the case of `NS(=O)(=O)c1cc(C(=O)O)c(NCc2ccco2)cc1Cl` [Furosemide (Lasix)], the “Hyperuricemia (incidence)” value is recorded as “Endocrine metabolic: Hyperuricemia (40%), Hypomagnesemia”.
